Reference: PubChem BioAssay AID248 (DTP/NCI, 2004)
Where “and” joins values, the source holds several entries; their conditions need not be identical. Equal values may be shown once. Toxic doses and inconclusive results are not listed. No stated cut-off is given here; in the data, active means T/C of 150% or more; inactive means T/C below 125%.

Tested on: L1210 leukemia ip in BDF1 mice, survival T/C
Assay: NCI In Vivo Anticancer Drug Screen. Data for tumor model L1210 Leukemia (intraperitoneal) in B6D2F1 (BDF1) mice
Conditions: higher = longer survival
Summary of the method: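 Each compound was tested against a transplantable tumor grown in mice. The endpoint was survival, with treated animals benchmarked against vehicle controls as a simple ratio.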

Measured: T/C

CN(C)/N=N/c1nc[nH]c1C(N)=O
inactive: endpoint: mean survival time, dose: 3.12 mg/kg/injection, schedule: Q#A X Z (ip), vehicle: carboxymethylcellulose (CMC) 100 % of control | endpoint: mean survival time, dose: 3.3 mg/kg/injection, schedule: Q01DX009 (ip), vehicle: carboxymethylcellulose (CMC) 104 % of control | endpoint: mean survival time, dose: 6.2 mg/kg/injection, schedule: Q01DX Z (ip), vehicle: saline 106 % of control | endpoint: mean survival time, dose: 6.25 mg/kg/injection, schedule: Q01DX006 (iv), vehicle: carboxymethylcellulose (CMC) 107 % of control | endpoint: mean survival time, dose: 6.25 mg/kg/injection, schedule: Q01DX Z (im), vehicle: carboxymethylcellulose (CMC) 101 % of control | endpoint: mean survival time, dose: 6.25 mg/kg/injection, schedule: Q01DX Z (ip), vehicle: carboxymethylcellulose (CMC) 106 % of control | endpoint: mean survival time, dose: 6.5 mg/kg/injection, schedule: Q01DX009 (ip), vehicle: carboxymethylcellulose (CMC) 100 % of control | endpoint: mean survival time, dose: 7.5 mg/kg/injection, schedule: Q03HX032 (ip), vehicle: carboxymethylcellulose (CMC) 108 % of control | endpoint: mean survival time, dose: 9.0 mg/kg/injection, schedule: Q01DX001 (ip), vehicle: carboxymethylcellulose (CMC) 101 % of control | endpoint: mean survival time, dose: 11.4 mg/kg/injection, schedule: Q03HX032 (ip), vehicle: carboxymethylcellulose (CMC) 106 % of control | endpoint: mean survival time, dose: 12.5 mg/kg/injection, schedule: Q01DX Z (im), vehicle: carboxymethylcellulose (CMC) 106 % of control | endpoint: mean survival time, dose: 12.5 mg/kg/injection, schedule: Q#A X034 (ip), vehicle: carboxymethylcellulose (CMC) 105 % of control | endpoint: mean survival time, dose: 13.0 mg/kg/injection, schedule: Q01DX009 (ip), vehicle: carboxymethylcellulose (CMC) 100 % of control and 102 % of control | endpoint: mean survival time, dose: 15.0 mg/kg/injection, schedule: Q04DX002 (ip), vehicle: carboxymethylcellulose (CMC) 93 % of control and 110 % of control | endpoint: mean survival time, dose: 18.75 mg/kg/injection, schedule: Q01DX001 (ip), vehicle: carboxymethylcellulose (CMC) 107 % of control | endpoint: mean survival time, dose: 23.7 mg/kg/injection, schedule: Q01DX009 (ip), vehicle: carboxymethylcellulose (CMC) 108 % of control | endpoint: mean survival time, dose: 25.0 mg/kg/injection, schedule: Q01DX005 (ip), vehicle: water 110 % of control | endpoint: mean survival time, dose: 25.0 mg/kg/injection, schedule: Q01DX009 (ip), vehicle: Klucel (hydroxypropylcellulose) (HPC) 104 % of control | endpoint: mean survival time, dose: 25.0 mg/kg/injection, schedule: Q04DX003 (ip), vehicle: other 95 % of control and 103 % of control | endpoint: mean survival time, dose: 26.0 mg/kg/injection, schedule: Q03HX032 (ip), vehicle: carboxymethylcellulose (CMC) 111 % of control | endpoint: mean survival time, dose: 29.0 mg/kg/injection, schedule: Q04DX002 (ip), vehicle: carboxymethylcellulose (CMC) 100 % of control | endpoint: mean survival time, dose: 30.0 mg/kg/injection, schedule: Q## X008 (ip), vehicle: other 101 % of control | endpoint: mean survival time, dose: 31.0 mg/kg/injection, schedule: Q01DX001 (ip), vehicle: carboxymethylcellulose (CMC) 103 % of control | endpoint: mean survival time, dose: 32.0 mg/kg/injection, schedule: Q01DX005 (ip), vehicle: water 101 % of control | endpoint: mean survival time, dose: 39.0 mg/kg/injection, schedule: Q01DX009 (ip), vehicle: steriod suspending solution 108 % of control | endpoint: mean survival time, dose: 39.0 mg/kg/injection, schedule: Q01DX Z (ip), vehicle: steriod suspending solution 108 % of control | endpoint: mean survival time, dose: 50.0 mg/kg/injection, schedule: Q01DX001 (ip), vehicle: water 103 % of control | endpoint: mean survival time, dose: 50.0 mg/kg/injection, schedule: Q01DX Z (oral), vehicle: carboxymethylcellulose (CMC) 109 % of control | endpoint: mean survival time, dose: 50.0 mg/kg/injection, schedule: Q02DX009 (ip), vehicle: carboxymethylcellulose (CMC) 103 % of control | endpoint: mean survival time, dose: 50.0 mg/kg/injection, schedule: Q04DX003 (ip), vehicle: Klucel (hydroxypropylcellulose) (HPC) 110 % of control | endpoint: mean survival time, dose: 50.0 mg/kg/injection, schedule: Q04DX003 (ip), vehicle: other 104 % of control and 106 % of control | endpoint: mean survival time, dose: 50.0 mg/kg/injection, schedule: Q04DX003 (ip), vehicle: water 108 % of control | endpoint: mean survival time, dose: 50.0 mg/kg/injection, schedule: Q07DX003 (oral), vehicle: other 100 % of control | endpoint: mean survival time, dose: 50.0 mg/kg/injection, schedule: Q## X003 (ip), vehicle: carboxymethylcellulose (CMC) 105 % of control | endpoint: mean survival time, dose: 58.0 mg/kg/injection, schedule: Q04DX002 (ip), vehicle: carboxymethylcellulose (CMC) 103 % of control | endpoint: mean survival time, dose: 60.0 mg/kg/injection, schedule: Q## X008 (ip), vehicle: other 107 % of control | endpoint: mean survival time, dose: 62.0 mg/kg/injection, schedule: Q01DX001 (ip), vehicle: carboxymethylcellulose (CMC) 106 % of control | endpoint: mean survival time, dose: 65.0 mg/kg/injection, schedule: Q02DX009 (ip), vehicle: steriod suspending solution 106 % of control and 110 % of control | endpoint: mean survival time, dose: 66.0 mg/kg/injection, schedule: Q04DX003 (ip), vehicle: carboxymethylcellulose (CMC) 107 % of control | endpoint: mean survival time, dose: 100.0 mg/kg/injection, schedule: Q01DX001 (ip), vehicle: steriod suspending solution 110 % of control | endpoint: mean survival time, dose: 100.0 mg/kg/injection, schedule: Q01DX001 (ip), vehicle: water 105 % of control | endpoint: mean survival time, dose: 100.0 mg/kg/injection, schedule: Q04DX002 (ip), vehicle: Klucel (hydroxypropylcellulose) (HPC) 105 % of control | endpoint: mean survival time, dose: 100.0 mg/kg/injection, schedule: Q04DX003 (ip), vehicle: water 110 % of control | endpoint: mean survival time, dose: 100.0 mg/kg/injection, schedule: Q07DX003 (oral), vehicle: other 104 % of control | endpoint: mean survival time, dose: 100.0 mg/kg/injection, schedule: Q## X003 (ip), vehicle: carboxymethylcellulose (CMC) 109 % of control | endpoint: mean survival time, dose: 100.0 mg/kg/injection, schedule: Q## X005 (ip), vehicle: carboxymethylcellulose (CMC) 107 % of control | endpoint: mean survival time, dose: 100.0 mg/kg/injection, schedule: Q#A X Z (ip), vehicle: carboxymethylcellulose (CMC) 102 % of control | endpoint: mean survival time, dose: 108.0 mg/kg/injection, schedule: Q02DX009 (ip), vehicle: steriod suspending solution 105 % of control and 107 % of control | endpoint: mean survival time, dose: 125.0 mg/kg/injection, schedule: Q01DX001 (ip), vehicle: carboxymethylcellulose (CMC) 109 % of control | endpoint: mean survival time, dose: 168.0 mg/kg/injection, schedule: Q01DX001 (ip), vehicle: carboxymethylcellulose (CMC) 107 % of control | endpoint: mean survival time, dose: 180.0 mg/kg/injection, schedule: Q02DX009 (ip), vehicle: steriod suspending solution 101 % of control and 104 % of control | endpoint: mean survival time, dose: 200.0 mg/kg/injection, schedule: Q01DX001 (ip), vehicle: water 108 % of control | endpoint: mean survival time, dose: 200.0 mg/kg/injection, schedule: Q01DX006 (iv), vehicle: carboxymethylcellulose (CMC) 102 % of control | endpoint: mean survival time, dose: 264.0 mg/kg/injection, schedule: Q01DX001 (ip), vehicle: other 110 % of control | endpoint: mean survival time, dose: 300.0 mg/kg/injection, schedule: Q01DX009 (ip), vehicle: steriod suspending solution 108 % of control | endpoint: mean survival time, dose: 300.0 mg/kg/injection, schedule: Q01DX Z (ip), vehicle: steriod suspending solution 108 % of control | endpoint: mean survival time, dose: 300.0 mg/kg/injection, schedule: Q03DX Z (ip), vehicle: carboxymethylcellulose (CMC) 103 % of control | endpoint: mean survival time, dose: 336.0 mg/kg/injection, schedule: Q01DX001 (ip), vehicle: carboxymethylcellulose (CMC) 109 % of control | endpoint: mean survival time, dose: 400.0 mg/kg/injection, schedule: Q01DX009 (ip), vehicle: other 106 % of control and 108 % of control | endpoint: mean survival time, dose: 400.0 mg/kg/injection, schedule: Q01DX009 (ip), vehicle: water 102 % of control | endpoint: mean survival time, dose: 400.0 mg/kg/injection, schedule: Q01DX Z (sc), vehicle: carboxymethylcellulose (CMC) 108 % of control | endpoint: mean survival time, dose: 400.0 mg/kg/injection, schedule: Q## X009 (ip), vehicle: carboxymethylcellulose (CMC) 110 % of control | endpoint: mean survival time, dose: 800.0 mg/kg/injection, schedule: Q01DX Z (oral), vehicle: carboxymethylcellulose (CMC) 96 % of control | endpoint: median survival time, dose: 20.0 mg/kg/injection, schedule: Q01DX009 (ip), vehicle: Klucel (hydroxypropylcellulose) (HPC) 106 % of control | endpoint: median survival time, dose: 20.0 mg/kg/injection, schedule: Q01DX015 (ip), vehicle: Klucel (hydroxypropylcellulose) (HPC) 110 % of control | endpoint: median survival time, dose: 65.0 mg/kg/injection, schedule: Q01DX001 (ip), vehicle: steriod suspending solution 100 % of control | endpoint: median survival time, dose: 65.0 mg/kg/injection, schedule: Q01DX009 (ip), vehicle: Klucel (hydroxypropylcellulose) (HPC) 110 % of control | endpoint: median survival time, dose: 65.0 mg/kg/injection, schedule: Q04DX003 (ip), vehicle: steriod suspending solution 110 % of control | endpoint: median survival time, dose: 108.0 mg/kg/injection, schedule: Q01DX001 (ip), vehicle: steriod suspending solution 110 % of control | endpoint: median survival time, dose: 108.0 mg/kg/injection, schedule: Q01DX014 (ip), vehicle: Klucel (hydroxypropylcellulose) (HPC) 94 % of control | endpoint: median survival time, dose: 108.0 mg/kg/injection, schedule: Q04DX003 (ip), vehicle: steriod suspending solution 110 % of control | endpoint: median survival time, dose: 180.0 mg/kg/injection, schedule: Q01DX001 (ip), vehicle: steriod suspending solution 100 % of control | endpoint: median survival time, dose: 180.0 mg/kg/injection, schedule: Q01DX014 (ip), vehicle: Klucel (hydroxypropylcellulose) (HPC) 108 % of control | endpoint: median survival time, dose: 300.0 mg/kg/injection, schedule: Q01DX001 (ip), vehicle: steriod suspending solution 110 % of control | endpoint: median survival time, dose: 300.0 mg/kg/injection, schedule: Q01DX013 (ip), vehicle: Klucel (hydroxypropylcellulose) (HPC) 105 % of control and 107 % of control | endpoint: median survival time, dose: 300.0 mg/kg/injection, schedule: Q01DX014 (ip), vehicle: Klucel (hydroxypropylcellulose) (HPC) 101 % of control | endpoint: median survival time, dose: 400.0 mg/kg/injection, schedule: Q04DX003 (ip), vehicle: Klucel (hydroxypropylcellulose) (HPC) 110 % of control | endpoint: median survival time, dose: 500.0 mg/kg/injection, schedule: Q01DX001 (ip), vehicle: steriod suspending solution 110 % of control | endpoint: median survival time, dose: 500.0 mg/kg/injection, schedule: Q01DX013 (ip), vehicle: Klucel (hydroxypropylcellulose) (HPC) 105 % of control and 107 % of control | endpoint: median survival time, dose: 500.0 mg/kg/injection, schedule: Q01DX014 (ip), vehicle: Klucel (hydroxypropylcellulose) (HPC) 102 % of control | endpoint: median survival time, dose: 833.0 mg/kg/injection, schedule: Q01DX009 (ip), vehicle: Klucel (hydroxypropylcellulose) (HPC) 110 % of control | endpoint: median survival time, dose: 1600.0 mg/kg/injection, schedule: Q04DX003 (ip), vehicle: Klucel (hydroxypropylcellulose) (HPC) 95 % of control
